In patent publication US12215140B2, “Method of stabilizing protein contained in specimen and solution for stabilizing protein contained in specimen” (EIKEN KAGAKU KABUSHIKI KAISHA, priority 2018, dated 2025):

Test system: hemoglobin-haptoglobin complex
Test: Stability of hemoglobin (as hemoglobin-haptoglobin complex) in samples preserved at 37° C. in preservation solution containing 1 unit/L haptoglobin, Hb measured by latex agglutination method (Examples 1 to 7)
Design: species or system human
Conditions: for Hb concentration / Recovery ratio with respect to Hb concentration after 0 days: 37° C.
Experimental: Preservation solutions were prepared with the addition of 40 mmol/L HEPES (pH 6.8), 0.1% BSA, 0.1% NaN3, 1 unit/L haptoglobin, and 0 to 100 mmol/L phenylboronic acid. Samples obtained by adding hemoglobin-added fecal specimens to the preservation solutions so that the fecal concentration would be 0.5% were preserved at 37° C. for 0, 7, 14, and 21 days. The fecal specimens were added with hemoglobin having an amount such that the hemoglobin concentration in the samples would be about 300 μg/L. Instead of the fecal specimens to which hemoglobin was added, samples containing no fecal specimens, in which hemoglobin was added to the preservation solutions so that the hemoglobin concentration in the samples would be 300 μg/L, were similarly preserved. The hemoglobin (Hb) concentrations (μg/L) in the preserved samples were measured by the latex agglutination method.
The concentrations of hemoglobin were measured using “OC-Hemodia (registered trademark) Auto III ‘EIKEN’” (available from EIKEN CHEMICAL CO., LTD.) as a measurement reagent and “OC-sensor DIANA” (available from EIKEN CHEMICAL CO., LTD.) as a measurement device. The above measurement reagent contains latex particles immobilizing an anti-human hemoglobin rabbit polyclonal antibody.
From the measured concentrations of hemoglobin, the recovery ratios (%) were calculated with respect to the hemoglobin concentrations immediately after the fecal specimens were added to the preservation solutions (i.e., concentrations 0 days after the fecal specimens were added).
(§1) For comparative examples, preservation solutions to which no arylboronic acid was added were prepared, and testing was conducted in the same manner.
The concentration of phenylboronic acid in the preservation solutions of Example 1 was fixed to 15 mmol/L, preservation solutions to which a sugar (sorbitol, sucrose, trehalose, glucose, fructose, or mannitol) was further added at 50 mmol/L or 100 mmol/L or preservation solutions to which no sugar was added were prepared, and testing was conducted in the same manner as in Example 1. For comparative examples, preservation solutions to which the phenylboronic acid and sugar were not added were prepared, and testing was conducted in the same manner.
Preservation solutions in which sorbitol, sucrose, trehalose, glucose, fructose, or mannitol was added at 100 mmol/L to the preservation solutions of Example 1 containing no phenylboronic acid were prepared, and testing was conducted in the same manner as in Example 1. For comparison, the same testing was conducted without adding these sugars.
The concentration of phenylboronic acid in the preservation solutions of Example 1 was fixed to 15 mmol/L, preservation solutions to which sorbitol was added at 10 to 500 mmol/L or sucrose was added at 10 to 250 mmol/L or preservation solutions to which no sugar was added were prepared, and testing was conducted in the same manner as in Example 1. For comparative examples, preservation solutions to which the phenylboronic acid and sugar were not added were prepared, and testing was conducted in the same manner.
as §1

[1] = Feces 1, sugar 50 mmol/L + phenylboronic acid 15 mmol/L, 0 days
[2] = Feces 1, sugar 50 mmol/L + phenylboronic acid 15 mmol/L, 7 days
[3] = Feces 1, sugar 50 mmol/L + phenylboronic acid 15 mmol/L, 14 days
[4] = Feces 1, sugar 50 mmol/L + phenylboronic acid 15 mmol/L, 21 days
[5] = Feces 1, sugar 100 mmol/L + phenylboronic acid 15 mmol/L, 0 days
[6] = Feces 1, sugar 100 mmol/L + phenylboronic acid 15 mmol/L, 7 days
[7] = Feces 1, sugar 100 mmol/L + phenylboronic acid 15 mmol/L, 14 days
[8] = Feces 1, sugar 100 mmol/L + phenylboronic acid 15 mmol/L, 21 days
[9] = Feces 1, sugar 100 mmol/L, no phenylboronic acid, 0 days
[10] = Feces 1, sugar 100 mmol/L, no phenylboronic acid, 7 days
[11] = Feces 1, sugar 100 mmol/L, no phenylboronic acid, 14 days
[12] = Feces 1, sugar 100 mmol/L, no phenylboronic acid, 21 days
[13] = Feces 2, sugar 50 mmol/L + phenylboronic acid 15 mmol/L, 0 days
[14] = Feces 2, sugar 50 mmol/L + phenylboronic acid 15 mmol/L, 7 days
[15] = Feces 2, sugar 50 mmol/L + phenylboronic acid 15 mmol/L, 14 days
[16] = Feces 2, sugar 50 mmol/L + phenylboronic acid 15 mmol/L, 21 days
[17] = Feces 2, sugar 100 mmol/L + phenylboronic acid 15 mmol/L, 0 days
[18] = Feces 2, sugar 100 mmol/L + phenylboronic acid 15 mmol/L, 7 days
[19] = Feces 2, sugar 100 mmol/L + phenylboronic acid 15 mmol/L, 14 days
[20] = Feces 2, sugar 100 mmol/L + phenylboronic acid 15 mmol/L, 21 days
[21] = Feces 2, sugar 100 mmol/L, no phenylboronic acid, 0 days
[22] = Feces 2, sugar 100 mmol/L, no phenylboronic acid, 7 days
[23] = Feces 2, sugar 100 mmol/L, no phenylboronic acid, 14 days
[24] = Feces 2, sugar 100 mmol/L, no phenylboronic acid, 21 days
[25] = Feces 3, sugar 50 mmol/L + phenylboronic acid 15 mmol/L, 0 days
[26] = Feces 3, sugar 50 mmol/L + phenylboronic acid 15 mmol/L, 7 days
[27] = Feces 3, sugar 50 mmol/L + phenylboronic acid 15 mmol/L, 14 days
[28] = Feces 3, sugar 50 mmol/L + phenylboronic acid 15 mmol/L, 21 days
[29] = Feces 3, sugar 100 mmol/L + phenylboronic acid 15 mmol/L, 0 days
[30] = Feces 3, sugar 100 mmol/L + phenylboronic acid 15 mmol/L, 7 days
[31] = Feces 3, sugar 100 mmol/L + phenylboronic acid 15 mmol/L, 14 days
[32] = Feces 3, sugar 100 mmol/L + phenylboronic acid 15 mmol/L, 21 days
[33] = Feces 3, sugar 100 mmol/L, no phenylboronic acid, 0 days
[34] = Feces 3, sugar 100 mmol/L, no phenylboronic acid, 7 days
[35] = Feces 3, sugar 100 mmol/L, no phenylboronic acid, 14 days
[36] = Feces 3, sugar 100 mmol/L, no phenylboronic acid, 21 days
[37] = No feces, sugar 50 mmol/L + phenylboronic acid 15 mmol/L, 0 days
[38] = No feces, sugar 50 mmol/L + phenylboronic acid 15 mmol/L, 7 days
[39] = No feces, sugar 50 mmol/L + phenylboronic acid 15 mmol/L, 14 days
[40] = No feces, sugar 50 mmol/L + phenylboronic acid 15 mmol/L, 21 days
[41] = No feces, sugar 100 mmol/L + phenylboronic acid 15 mmol/L, 7 days
[42] = No feces, sugar 100 mmol/L + phenylboronic acid 15 mmol/L, 14 days
[43] = No feces, sugar 100 mmol/L + phenylboronic acid 15 mmol/L, 21 days
[44] = No feces, sugar 100 mmol/L, no phenylboronic acid, 0 days
[45] = No feces, sugar 100 mmol/L, no phenylboronic acid, 7 days
[46] = No feces, sugar 100 mmol/L, no phenylboronic acid, 14 days
[47] = No feces, sugar 100 mmol/L, no phenylboronic acid, 21 days

SMILES: O=C(CO)[C@@H](O)[C@H](O)[C@H](O)CO [Fructose, fructose]
- Hb concentration [1]: 297 µg/L
- Recovery ratio with respect to Hb concentration after 0 days [1]: 100%
- Hb concentration [2]: 294 µg/L
- Recovery ratio with respect to Hb concentration after 0 days [2]: 99%
- Hb concentration [3]: 285 µg/L
- Recovery ratio with respect to Hb concentration after 0 days [3]: 96%
- Hb concentration [4]: 280 µg/L
- Recovery ratio with respect to Hb concentration after 0 days [4]: 94%
- Hb concentration [5]: 287 µg/L
- Recovery ratio with respect to Hb concentration after 0 days [5]: 100%
- Hb concentration [6]: 276 µg/L
- Recovery ratio with respect to Hb concentration after 0 days [6]: 96%
- Hb concentration [7]: 247 µg/L
- Recovery ratio with respect to Hb concentration after 0 days [7]: 86%
- Hb concentration [8]: 228 µg/L
- Recovery ratio with respect to Hb concentration after 0 days [8]: 79%
- Hb concentration [9]: 285 µg/L
- Recovery ratio with respect to Hb concentration after 0 days [9]: 100%
- Hb concentration [10]: 127 µg/L
- Recovery ratio with respect to Hb concentration after 0 days [10]: 45%
- Hb concentration [11]: 85 µg/L
- Recovery ratio with respect to Hb concentration after 0 days [11]: 30%
- Hb concentration [12]: 81 µg/L
- Recovery ratio with respect to Hb concentration after 0 days [12]: 28%
- Hb concentration [13]: 270 µg/L
- Recovery ratio with respect to Hb concentration after 0 days [13]: 100%
- Hb concentration [14]: 275 µg/L
- Recovery ratio with respect to Hb concentration after 0 days [14]: 102%
- Hb concentration [15]: 243 µg/L
- Recovery ratio with respect to Hb concentration after 0 days [15]: 90%
- Hb concentration [16]: 222 µg/L
- Recovery ratio with respect to Hb concentration after 0 days [16]: 82%
- Hb concentration [17]: 280 µg/L
- Recovery ratio with respect to Hb concentration after 0 days [17]: 100%
- Hb concentration [18]: 264 µg/L
- Recovery ratio with respect to Hb concentration after 0 days [18]: 94%
- Hb concentration [19]: 235 µg/L
- Recovery ratio with respect to Hb concentration after 0 days [19]: 84%
- Hb concentration [20]: 212 µg/L
- Recovery ratio with respect to Hb concentration after 0 days [20]: 76%
- Hb concentration [21]: 273 µg/L
- Recovery ratio with respect to Hb concentration after 0 days [21]: 100%
- Hb concentration [22]: 100 µg/L
- Recovery ratio with respect to Hb concentration after 0 days [22]: 37%
- Hb concentration [23]: 56 µg/L
- Recovery ratio with respect to Hb concentration after 0 days [23]: 21%
- Hb concentration [24]: 35 µg/L
- Recovery ratio with respect to Hb concentration after 0 days [24]: 13%
- Hb concentration [25]: 272 µg/L
- Recovery ratio with respect to Hb concentration after 0 days [25]: 100%
- Hb concentration [26]: 238 µg/L
- Recovery ratio with respect to Hb concentration after 0 days [26]: 88%
- Hb concentration [27]: 218 µg/L
- Recovery ratio with respect to Hb concentration after 0 days [27]: 80%
- Hb concentration [28]: 203 µg/L
- Recovery ratio with respect to Hb concentration after 0 days [28]: 75%
- Hb concentration [29]: 276 µg/L
- Recovery ratio with respect to Hb concentration after 0 days [29]: 100%
- Hb concentration [30]: 244 µg/L
- Recovery ratio with respect to Hb concentration after 0 days [30]: 88%
- Hb concentration [31]: 222 µg/L
- Recovery ratio with respect to Hb concentration after 0 days [31]: 80%
- Hb concentration [32]: 204 µg/L
- Recovery ratio with respect to Hb concentration after 0 days [32]: 74%
- Hb concentration [33]: 265 µg/L
- Recovery ratio with respect to Hb concentration after 0 days [33]: 100%
- Hb concentration [34]: 83 µg/L
- Recovery ratio with respect to Hb concentration after 0 days [34]: 31%
- Hb concentration [35]: 41 µg/L
- Recovery ratio with respect to Hb concentration after 0 days [35]: 15%
- Hb concentration [36]: 39 µg/L
- Recovery ratio with respect to Hb concentration after 0 days [36]: 15%
- Hb concentration [37]: 286 µg/L
- Recovery ratio with respect to Hb concentration after 0 days [37]: 100%
- Hb concentration [38]: 255 µg/L
- Recovery ratio with respect to Hb concentration after 0 days [38]: 89%
- Hb concentration [39]: 261 µg/L
- Recovery ratio with respect to Hb concentration after 0 days [39]: 91%
- Hb concentration [40]: 275 µg/L
- Recovery ratio with respect to Hb concentration after 0 days [40]: 96%
- Recovery ratio with respect to Hb concentration after 0 days (No feces, sugar 100 mmol/L + phenylboronic acid 15 mmol/L, 0 days): 100%
- Hb concentration [41]: 245 µg/L
- Recovery ratio with respect to Hb concentration after 0 days [41]: 87%
- Hb concentration [42]: 251 µg/L
- Recovery ratio with respect to Hb concentration after 0 days [42]: 89%
- Hb concentration [43]: 262 µg/L
- Recovery ratio with respect to Hb concentration after 0 days [43]: 93%
- Hb concentration [44]: 250 µg/L
- Recovery ratio with respect to Hb concentration after 0 days [44]: 100%
- Hb concentration [45]: 215 µg/L
- Recovery ratio with respect to Hb concentration after 0 days [45]: 86%
- Hb concentration [46]: 196 µg/L
- Recovery ratio with respect to Hb concentration after 0 days [46]: 78%
- Hb concentration [47]: 177 µg/L
- Recovery ratio with respect to Hb concentration after 0 days [47]: 71%
- recovery ratio of hemoglobin in the samples containing fecal specimens (sugar 100 mmol/L, preservation solutions containing no phenylboronic acid): does not improve
- recovery ratio of hemoglobin in the sample (sugar 50 or 100 mmol/L further added to phenylboronic acid 15 mmol/L, Feces 1, Feces 2, Feces 3): further improved
